Source: patent US20220153746A1, “NITROGEN OXIDE-DONATING PDE-5 AND/OR PDE-6 INHIBITOR COMPOUNDS, AND USES THEREOF” (ILDONG PHARMACEUTICAL CO., LTD., priority 2020, published 2022)

Key:
Assay type in all cases: in vitro ADME
[1] = Metabolic stability in human liver microsomes; conditions: 37° C., 0-60 minutes
Experimental: This example illustrates the metabolic stability of selected compounds in human liver microsomes samples.
Both test and control compound solutions were prepared by diluting 5 μL of the respective stock solutions (10 mM in DMSO) containing either the test or control compound with 495 μL of acetonitrile (ACN) to give intermediate solutions with concentrations of 100 μM (99% ACN).
β-Nicotinamide adenine dinucleotide phosphate tetrasodium salt (NADPH.4Na) was purchased from BONTAC (cat. No. BT04). The NADPH working solution (10 unit/mL) was prepared by combining the appropriate amount of NADPH powder and a MgCl2 solution (10 mM) to give final concentration in the reaction system of 1 unit/mL.
The appropriate concentrations of the microsome working solutions were prepared in 100 mM potassium phosphate buffer.
Cold (4° C.) acetonitrile solution containing 200 ng/mL tolbutamide and 200 ng/mL labetalol (internal standard) was used as the stop solution.
Liver microsomes solution was diluted to 0.56 mg/mL in 100 mM phosphate buffer, and 445 μL of this solution was transferred into pre-warmed (10 minutes) “incubation” plates T60 and NCF60; the “incubation” plates T60 and NCF60 were pre-warmed for 10 minutes at 37° C. with constant shaking.
54 μL of the liver microsome solutions was transferred to the blank plate, followed by addition of 6 μL of the NAPDH cofactor solution and 180 μL of the quenching solution to the same blank plate.
5 μL of the compound working solution (100 μM concentration) was next added to into the “incubation” plates (T60 and NCF60) containing microsomes and mixed 3 times thoroughly. For the NCF60 plate, 50 μL of the buffer solution was added, mixed 3 times thoroughly, and incubated at 37° C. for 60 minutes under constant shaking.
In the “Quenching” plate at T0 (T=0 min), 180 μL of quenching solution and 6 μL of the NAPDH cofactor solution were added, and the resulting plate was chilled to prevent evaporation.
In the T60 plate, after it was thoroughly mixed, 54 μL of the mixture was immediately transferred to the “quenching” plate for the 0-minute time point, followed by addition of 44 μL of NAPDH cofactor solution to the incubation plate (T60). The resulting mixture was then incubated at 37° C. for 60 minutes under constant shaking. At time points of 5, 10, 20, 30 and 60 minutes, 180 μL of the quenching solution was added to the “quenching” plates, followed by serial transfer of 60 μL of the mixture (per time point) from the T60 plate to the “Quenching” plates.
For the NCF60 plates, 60 μL of the sample solution was transferred from the NCF60 incubation plate to the “Quenching” plate containing quenching solution at T=60 min time point. […]

[2] = tested on: human plasma proteins; assay: Plasma protein binding assay (equilibrium dialysis); conditions: 2 μM, dialysis 4 hours at 37° C.
Experimental: (§1) The dialysis device used in this example is a 96-well equilibrium dialysis plate (Cat #1006, HT Dialysis LLC, Gales Gerry, CT), and HTD 96 a/b dialysis membrane strips (Cat #1101, MWCO 12-14 kDa, HT Dialysis LLC). The dialysis device was assembled following the manufacturer's instructions.
(§2) The dialysis membrane strips were soaked in ultra-pure water at room temperature for approximately 1 hour. Each membrane strip containing 2 membranes was separated and soaked in 20:80 ethanol/water (v/v) for approximately 20 minutes, after which they were ready for used or were stored in the solution at 2-8° C. for up to a month. Prior to experiment, the membrane was rinsed and soaked for 20 minutes in ultra-pure water.
(§3) On the day of the experiment, the plasma was thawed by running under col tap water and centrifuged at 3220 rpm for 5 minutes to remove any clos. The pH value of the resulting plasma was checked. Only plasma with pH value with 7.0-8.0 could be used.
(§4) Both test and control compounds were dissolved in DMSO to achieve 10 mM stock solutions. Working solutions (400 μM) if test and control compounds were prepared by diluting 10μ of stock solutions with 240 μL of DMSO. Loading matrix solutions (2 μM) of both test and control compounds were prepared by diluting 5 μL of working solutions with 995 μL of blank matrix.
(§5) To prepare the loading matrix containing the test compound or control compounds, aliquots of either test compound working solutions or control compound working solution were spiked into blank matrix to achieve final test concentrations. The concentration of organic solvent in the final solutions were no more than 1% (normally 0.5%). The samples were mixture thoroughly before being used.
(§6) To prepare the time zero (T0) samples to be used for recovery determinations. 50 μL aliquots of loading matrix solution were transferred in triplicate to the sample collection plate. The samples were immediately matched with opposite blank buffer to obtain a final volume of 100 μL of 1:1 matrix/dialysis buffer (v/v) in each well. 500 μL of stop solution were added to these T0 samples. They were then stored at 2-8° C. pending further processes along with other post-dialysis samples.
(§7) To load the dialysis device, an aliquot of 150 μL of the loading matrix was transferred to the donor side of each dialysis well in triplicate, and 150 μL of the dialysis buffer was loaded to the received side of the well. The dialysis was placed in humidified incubator at 37° C. with 5% CO2 on a shaking platform that rated slowly (about 100 rpm) for 4 hours.
(§8) At the end of the dialysis, aliquots of 50 μL of samples were taken from both the buffer side and the matrix side of the dialysis deice. These samples were transferred into new 96-well plates (the sample collection plates). Each sample was mixed with an equal volume of opposite blank matrix (buffer or matrix) to reach a final volume of 100 μL of 1:1 matrix/dialysis buffer (v/v) in each well. All samples were further processed by adding 500 μL of stop solution containing internal standards. The mixture was vortexed and centrifuged at 4000 rpm for about 20 minutes. An aliquot of 100 μL of supernatant of all the samples were then removed for LC-MS/MS analysis.
(§9) The single blank samples were prepared by transferring 50 μL of blank matrix to a 96 well plate and adding 50 μL of blank PBS buffer to each well. The blank plasma must match the species of plasma used in the plasma side of the well. Then the matrix-matched samples were further processed by adding 500 μL of stop solution containing internal standards, following the same sample processing method as the dialysis samples.

[3] = as above; conditions: human plasma, dialysis 4 hours at 37° C.
Experimental: as §1, §2, §3, §4, §5, §6, §7, §8, §9

| Structure (SMILES) | CLint scaled at 1 µM [1] | % Bound [2] | fraction unbound at 4 h, 2 µM [3] |
| --- | --- | --- | --- |
| CCCc1nn(C)c2c(=O)[nH]c(-c3cc(S(=O)(=O)N4CC(CCCO[N+](=O)[O-])C4)ccc3OCC)nc12 [Compound 18, 3-(1-((4-ethoxy-3-(1-methyl-7-oxo-3-propyl-6,7-dihydro-1H-pyrazolo[4,3-d]pyrimidin-5-yl)phenyl)sulfonyl)azetidin-3-yl)propyl nitrate] | 934 mL/min/kg | 99.52% | 0.0048 |
| CCCc1nn(C)c2c(=O)[nH]c(-c3cc(S(=O)(=O)N4CC(CCCO)C4)ccc3OCC)nc12 [Compound 4, 5-(2-ethoxy-5-((3-(3-hydroxypropyl)azetidin-1-yl)sulfonyl)phenyl)-1-methyl-3-propyl-1,6-dihydro-7H-pyrazolo[4,3-d]pyrimidin-7-one] | 357 mL/min/kg | 96.01% | 0.0399 |
